Measured values published in patent US7786141B2 (Vertex Pharmaceuticals Incorporated, priority 2004, dated 2010).

Assays:
M4 muscarinic receptor = molecular target: T1, M4 muscarinic receptor (Homo sapiens, UniProt P08173); assay: Functional mobilization of intracellular calcium (FLIPR) in M4-CHO cells; assay type: cell-based; conditions: Table 4; for Emax: 100% efficacy is the maximum response obtained with the Carbachol control; for M4 Activity: modulating M4 receptor
T1 construct: expressed in transfected cells; host or cells: CHO (M4-CHO)
T1 sequence (P08173 1-479): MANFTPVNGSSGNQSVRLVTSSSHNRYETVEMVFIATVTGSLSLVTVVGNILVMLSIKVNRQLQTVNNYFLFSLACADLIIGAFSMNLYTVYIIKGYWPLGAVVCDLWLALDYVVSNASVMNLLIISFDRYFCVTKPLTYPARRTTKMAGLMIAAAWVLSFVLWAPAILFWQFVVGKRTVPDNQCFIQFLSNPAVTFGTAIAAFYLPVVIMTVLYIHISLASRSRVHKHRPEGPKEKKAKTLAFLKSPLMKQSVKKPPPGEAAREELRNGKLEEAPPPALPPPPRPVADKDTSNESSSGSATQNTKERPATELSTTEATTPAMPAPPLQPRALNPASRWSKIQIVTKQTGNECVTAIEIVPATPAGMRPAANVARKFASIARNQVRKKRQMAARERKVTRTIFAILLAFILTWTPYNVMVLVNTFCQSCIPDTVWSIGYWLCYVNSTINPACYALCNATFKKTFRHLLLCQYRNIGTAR
Procedure, shortened: (§1)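 Intracellular calcium rise is measured by FLIPR fluorescence over 60 sec in CHO cells carrying human M1 or M4 receptors. Compounds are tested alone as agonists, or pre-incubated 15 min (or co-applied) ahead of carbachol at its EC80 to detect inhibition.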

M1 muscarinic receptor = molecular target: T2, M1 muscarinic receptor (Homo sapiens, UniProt P11229); assay: Functional mobilization of intracellular calcium (FLIPR) in M1-CHO cells; assay type: cell-based; conditions: Table 4; for Emax: 100% efficacy is the maximum response obtained with the Carbachol control; for M1 Activity: modulating M1 receptor
T2 construct: expressed in transfected cells; host or cells: CHO (M1-CHO)
T2 sequence (P11229 1-460): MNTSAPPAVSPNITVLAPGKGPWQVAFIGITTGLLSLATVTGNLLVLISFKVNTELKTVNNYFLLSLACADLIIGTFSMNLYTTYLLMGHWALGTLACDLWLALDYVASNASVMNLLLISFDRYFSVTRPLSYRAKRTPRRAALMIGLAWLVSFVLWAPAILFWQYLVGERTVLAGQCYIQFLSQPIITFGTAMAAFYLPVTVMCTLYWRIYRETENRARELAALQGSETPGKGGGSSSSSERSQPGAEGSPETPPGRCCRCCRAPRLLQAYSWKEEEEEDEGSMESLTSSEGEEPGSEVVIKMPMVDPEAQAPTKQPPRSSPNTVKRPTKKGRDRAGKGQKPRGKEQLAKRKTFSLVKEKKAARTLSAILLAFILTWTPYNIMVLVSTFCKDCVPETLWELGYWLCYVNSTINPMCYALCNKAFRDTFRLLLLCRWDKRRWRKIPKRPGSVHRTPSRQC
Procedure, shortened: as §1

Fc1ccc2c(c1)C1(CCN(C3CC4CCC3O4)CC1)CN2 (stereo not shown) [compound 705]
Emax (M4 muscarinic receptor): < 25%
M4 Activity (M4 muscarinic receptor): x (activity was measured to be greater than 5.0 μM)
Emax (M1 muscarinic receptor): < 25%
M1 Activity (M1 muscarinic receptor): x (activity was measured to be greater than 5.0 μM)

CCCOC(=O)N1CC[C@@H](CN2CCC3(CC2)CN(C(=O)N(C)C)c2ccc(F)cc23)C1 [compound 706]
Emax (M4 muscarinic receptor): 25 to 100%
M4 Activity (M4 muscarinic receptor): xxx (activity was measured to be less than 2.0 μM)
Emax (M1 muscarinic receptor): 25 to 100%
M1 Activity (M1 muscarinic receptor): xxx (activity was measured to be less than 2.0 μM)

CC(=O)N[C@H]1CC2(CCN(C3CCN(c4cccc(F)n4)CC3)CC2)c2ccccc21 [compound 708]
Emax (M4 muscarinic receptor): 25 to 100%
M4 Activity (M4 muscarinic receptor): xxx (activity was measured to be less than 2.0 μM)
Emax (M1 muscarinic receptor): 25 to 100%
M1 Activity (M1 muscarinic receptor): xxx (activity was measured to be less than 2.0 μM)

CC(=O)NC1CCC2(CCN(CCC3CCOCC3)CC2)c2ccccc21 (stereo not shown) [compound 709]
Emax (M4 muscarinic receptor): < 25%
M4 Activity (M4 muscarinic receptor): xxx (activity was measured to be less than 2.0 μM)
Emax (M1 muscarinic receptor): 25 to 100%
M1 Activity (M1 muscarinic receptor): xxx (activity was measured to be less than 2.0 μM)

CC(=O)N1CC2(CCN(C3CCN(c4nn[nH]n4)CC3)CC2)c2ccccc21 [compound 710]
Emax (M4 muscarinic receptor): 25 to 100%
M4 Activity (M4 muscarinic receptor): x (activity was measured to be greater than 5.0 μM)
Emax (M1 muscarinic receptor): 25 to 100%
M1 Activity (M1 muscarinic receptor): x (activity was measured to be greater than 5.0 μM)

CN(C)C(=O)N1CC2(CCN(C3CCN(c4ccccc4F)CC3)CC2)c2cc(F)ccc21 [compound 711]
Emax (M4 muscarinic receptor): < 25%
M4 Activity (M4 muscarinic receptor): x (activity was measured to be greater than 5.0 μM)
Emax (M1 muscarinic receptor): 25 to 100%
M1 Activity (M1 muscarinic receptor): xx (activity was measured to be between 2.0 μM and 5.0 μM)

CCOC(=O)N1CCC(N2CCC3(CC2)CN(C(=O)NCc2ccccc2)c2ccccc23)CC1 [compound 712]
Emax (M4 muscarinic receptor): 25 to 100%
M4 Activity (M4 muscarinic receptor): xxx (activity was measured to be less than 2.0 μM)
Emax (M1 muscarinic receptor): 25 to 100%
M1 Activity (M1 muscarinic receptor): xxx (activity was measured to be less than 2.0 μM)

CCOC(=O)N1CCC(N2CCC3(CC2)CN(C(=O)CCOC)c2ccc(F)cc23)CC1 [compound 714]
Emax (M4 muscarinic receptor): 25 to 100%
M4 Activity (M4 muscarinic receptor): xxx (activity was measured to be less than 2.0 μM)
Emax (M1 muscarinic receptor): > 100%
M1 Activity (M1 muscarinic receptor): xxx (activity was measured to be less than 2.0 μM)

O=C1CC2(CCN(C3CCCCC3)CC2)c2cc(Cl)ccc21 [compound 715]
Emax (M4 muscarinic receptor): 25 to 100%
M4 Activity (M4 muscarinic receptor): xxx (activity was measured to be less than 2.0 μM)
Emax (M1 muscarinic receptor): 25 to 100%
M1 Activity (M1 muscarinic receptor): xxx (activity was measured to be less than 2.0 μM)

CC(=O)NC1CCC2(CCN(C3CCCCC3)CC2)c2ccccc21 (stereo not shown) [compound 716]
Emax (M4 muscarinic receptor): 25 to 100%
M4 Activity (M4 muscarinic receptor): xxx (activity was measured to be less than 2.0 μM)
Emax (M1 muscarinic receptor): 25 to 100%
M1 Activity (M1 muscarinic receptor): xxx (activity was measured to be less than 2.0 μM)

CCOC(=O)N1CCC(N2CCC3(CC2)CN(c2ccccc2OC)c2ccc(F)cc23)CC1 [compound 717]
Emax (M4 muscarinic receptor): 25 to 100%
M4 Activity (M4 muscarinic receptor): xxx (activity was measured to be less than 2.0 μM)
Emax (M1 muscarinic receptor): 25 to 100%
M1 Activity (M1 muscarinic receptor): xxx (activity was measured to be less than 2.0 μM)

CN(C)C(=O)N1CC2(CCN(C3CCN(C(=O)c4ccccn4)CC3)CC2)c2cc(F)ccc21 [compound 718]
Emax (M4 muscarinic receptor): < 25%
M4 Activity (M4 muscarinic receptor): x (activity was measured to be greater than 5.0 μM)
Emax (M1 muscarinic receptor): < 25%
M1 Activity (M1 muscarinic receptor): x (activity was measured to be greater than 5.0 μM)

CCOC(=O)N1CCC(N2CCC3(CC2)CN(C(C)=O)c2ccc(S(C)(=O)=O)cc23)CC1 [compound 719]
Emax (M4 muscarinic receptor): < 25%
M4 Activity (M4 muscarinic receptor): x (activity was measured to be greater than 5.0 μM)
Emax (M1 muscarinic receptor): 25 to 100%
M1 Activity (M1 muscarinic receptor): xxx (activity was measured to be less than 2.0 μM)

CN(C)C(=O)N1CC2(CCN(C3CCN(c4ccccn4)CC3)CC2)c2cc(F)ccc21 [compound 720]
Emax (M4 muscarinic receptor): 25 to 100%
M4 Activity (M4 muscarinic receptor): xxx (activity was measured to be less than 2.0 μM)
Emax (M1 muscarinic receptor): 25 to 100%
M1 Activity (M1 muscarinic receptor): xx (activity was measured to be between 2.0 μM and 5.0 μM)

CCCCNC(=O)N1CC2(CCN(C3CCN(C(=O)OCC)CC3)CC2)c2ccccc21 [compound 721]
Emax (M4 muscarinic receptor): 25 to 100%
M4 Activity (M4 muscarinic receptor): xxx (activity was measured to be less than 2.0 μM)
Emax (M1 muscarinic receptor): 25 to 100%
M1 Activity (M1 muscarinic receptor): xxx (activity was measured to be less than 2.0 μM)

CCOC(=O)N1CCC(CN2CCC3(CC2)CN(C(C)=O)c2c(F)cc(F)cc23)CC1 [compound 722]
Emax (M4 muscarinic receptor): 25 to 100%
M4 Activity (M4 muscarinic receptor): xxx (activity was measured to be less than 2.0 μM)
Emax (M1 muscarinic receptor): 25 to 100%
M1 Activity (M1 muscarinic receptor): xxx (activity was measured to be less than 2.0 μM)

CS(=O)(=O)N[C@H]1CCC2(CCN(C3CCCCCC3)CC2)c2ccccc21 [compound 723]
Emax (M4 muscarinic receptor): 25 to 100%
M4 Activity (M4 muscarinic receptor): xxx (activity was measured to be less than 2.0 μM)
Emax (M1 muscarinic receptor): 25 to 100%
M1 Activity (M1 muscarinic receptor): xxx (activity was measured to be less than 2.0 μM)

CC(=O)N1CC2(CCN(C3CCN(C(=O)OCC4CC4)CC3)CC2)c2ccccc21 [compound 724]
Emax (M4 muscarinic receptor): < 25%
M4 Activity (M4 muscarinic receptor): x (activity was measured to be greater than 5.0 μM)
Emax (M1 muscarinic receptor): 25 to 100%
M1 Activity (M1 muscarinic receptor): xx (activity was measured to be between 2.0 μM and 5.0 μM)

O=C(N[C@H]1CC2(CCN(CCC3CC4CC[C@@H]3C4)CC2)c2ccccc21)N1CCCC1 (stereo partly shown) [compound 726]
Emax (M4 muscarinic receptor): < 25%
M4 Activity (M4 muscarinic receptor): x (activity was measured to be greater than 5.0 μM)
Emax (M1 muscarinic receptor): < 25%
M1 Activity (M1 muscarinic receptor): x (activity was measured to be greater than 5.0 μM)

CN(C)C(=O)N1CC2(CCN(C3CCN(C(=O)C4(C(F)(F)F)CC4)CC3)CC2)c2cc(F)ccc21 [compound 727]
Emax (M4 muscarinic receptor): 25 to 100%
M4 Activity (M4 muscarinic receptor): xxx (activity was measured to be less than 2.0 μM)
Emax (M1 muscarinic receptor): 25 to 100%
M1 Activity (M1 muscarinic receptor): x (activity was measured to be greater than 5.0 μM)

CCOC(=O)N1CCC(N2CCC3(CC2)CN(C(C)=O)c2c(-c4cccnc4)cccc23)CC1 [compound 728]
Emax (M4 muscarinic receptor): < 25%
M4 Activity (M4 muscarinic receptor): x (activity was measured to be greater than 5.0 μM)
Emax (M1 muscarinic receptor): 25 to 100%
M1 Activity (M1 muscarinic receptor): xx (activity was measured to be between 2.0 μM and 5.0 μM)

CN(C)C(=O)N1CC2(CCN(C3CCN(C(=O)CC#N)CC3)CC2)c2cc(F)ccc21 [compound 729]
Emax (M4 muscarinic receptor): < 25%
M4 Activity (M4 muscarinic receptor): x (activity was measured to be greater than 5.0 μM)
Emax (M1 muscarinic receptor): < 25%
M1 Activity (M1 muscarinic receptor): x (activity was measured to be greater than 5.0 μM)

CCOC(=O)N1CCC(N2CCC3(CC2)CN(C(=O)[C@H](O)CC)c2ccc(F)cc23)CC1 [compound 730]
Emax (M4 muscarinic receptor): 25 to 100%
M4 Activity (M4 muscarinic receptor): xxx (activity was measured to be less than 2.0 μM)
Emax (M1 muscarinic receptor): 25 to 100%
M1 Activity (M1 muscarinic receptor): xxx (activity was measured to be less than 2.0 μM)

CC(=O)NC1CCC2(CCN(CCC3CCCN(C(=O)OC(C)C)C3)CC2)c2ccccc21 (stereo not shown) [compound 731]
Emax (M4 muscarinic receptor): < 25%
M4 Activity (M4 muscarinic receptor): x (activity was measured to be greater than 5.0 μM)
Emax (M1 muscarinic receptor): < 25%
M1 Activity (M1 muscarinic receptor): xxx (activity was measured to be less than 2.0 μM)

O=C1CC2(CCN([C@@H]3C[C@H]4CC[C@@H]3C4)CC2)c2ccccc21 [compound 732]
Emax (M4 muscarinic receptor): 25 to 100%
M4 Activity (M4 muscarinic receptor): xx (activity was measured to be between 2.0 μM and 5.0 μM)
Emax (M1 muscarinic receptor): 25 to 100%
M1 Activity (M1 muscarinic receptor): x (activity was measured to be greater than 5.0 μM)

CN(C)C(=O)CN1CC2(CCN(C[C@H]3C[C@H]4C=CC3C4)CC2)c2cc(F)ccc21 [compound 734]
Emax (M4 muscarinic receptor): 25 to 100%
M4 Activity (M4 muscarinic receptor): xxx (activity was measured to be less than 2.0 μM)
Emax (M1 muscarinic receptor): 25 to 100%
M1 Activity (M1 muscarinic receptor): xxx (activity was measured to be less than 2.0 μM)

COc1cccc(N2CCC(N3CCC4(CC3)CN(C(=O)N(C)C)c3ccc(F)cc34)CC2)c1 [compound 735]
Emax (M4 muscarinic receptor): 25 to 100%
M4 Activity (M4 muscarinic receptor): xxx (activity was measured to be less than 2.0 μM)
Emax (M1 muscarinic receptor): 25 to 100%
M1 Activity (M1 muscarinic receptor): xx (activity was measured to be between 2.0 μM and 5.0 μM)

COCCN1CC2(CCN([C@@H]3C[C@H]4CCC3C4)CC2)c2cc(C)ccc21 [compound 737]
Emax (M4 muscarinic receptor): 25 to 100%
M4 Activity (M4 muscarinic receptor): xxx (activity was measured to be less than 2.0 μM)
Emax (M1 muscarinic receptor): 25 to 100%
M1 Activity (M1 muscarinic receptor): xx (activity was measured to be between 2.0 μM and 5.0 μM)
